Measurements taken from publication PMC11808136, “Screening and identification of host signaling pathways for alleviating influenza-induced production of pro-inflammatory cytokines, IP-10, IL-8, and MCP-1, using a U937 cell-based influenza model” (Frontiers in Microbiology, 2025).
Read-outs that look alike come from different tables or passages of the source.

Experiments:
[1] = test system: IL-8 production in influenza virus-infected U937 cells (H1N1); test: cells; type: cell-based, Human; conditions: for EC50: read-out: EC50 IL-8
[2] = test system: IP-10 production in influenza virus-infected U937 cells (H1N1); test: cells; type: cell-based
[3] = test system: MCP-1 production in influenza virus-infected U937 cells (H1N1); test: cells; type: cell-based
[4] = test system: IL-8 production in influenza virus-infected U937 cells (H3N2); test: cells; type: cell-based, Human
[5] = test system: IP-10 production in influenza virus-infected U937 cells (H3N2); test: cells; type: cell-based, Human
[6] = test system: MCP-1 production in influenza virus-infected U937 cells (H3N2); test: cells; type: cell-based, Human
[7] = test system: IL-8 production in influenza virus-infected U937 cells (H7N8); test: cells; type: cell-based, Human
[8] = test system: IP-10 production in influenza virus-infected U937 cells (H7N8); test: cells; type: cell-based, Human
[9] = test system: MCP-1 production in influenza virus-infected U937 cells (H7N8); test: cells; type: cell-based, Human
JAK2 = target: T1, JAK2 (Homo sapiens, UniProt O60674); test: Cell-free kinase activity assay, JAK2; type: biochemical
T1 construct: purchased KinaseProfiler (Eurofin, Brussels, Belgium)

p38 = p38 (Homo sapiens, UniProt Q16539); test: Cell-free kinase activity assay, p38; type: biochemical; conditions: for p38 kinase activity in vitro: cell-free; for IC50: p38 kinases in vitro
[10] = test system: phosphorylation of p38 (p-p38); test: Western blot of phosphorylated p38 in influenza-infected U937 cells; type: cell-based, Human; conditions: for phosphorylation of p38: 24 h post-infection, western blot, cellular model
Experimental: (§1) Figure 6 TKIs repress cytokine production by suppressing the p38 pathway. […] Cells were lysed 24 h post-infection, and the levels of phosphorylated p38 and ERK (p-p38 and p-ERK) and total p38 and ERK were assessed by western blot. A quantification of phosphorylated p38 levels for each drug treatment was included in the right panel of each figure.
(§2) Cells were homogenized in RIPA lysis buffer containing a 1% protease inhibitor cocktail (Roche) to extract total protein. Equal amounts of protein homogenates were separated by SDS-PAGE (Bio-Rad) and transferred onto polyvinylidene difluoride membranes (pore size […]; Bio-Rad). The membranes were then blotted with monoclonal antibodies against GAPDH (1:1000, ZSGB-BIO), p38, phosphor-p38, ERK, phospho-ERK, STAT1, phosphor-STAT1 (1:1000; Cell Signaling Technology), STAT3, and phosphor-STAT3 (1:1000; Cell Signaling Technology), respectively. Protein levels were detected with horseradish peroxidase-tagged secondary antibodies and enhanced chemiluminescence western blot reagents (Advansta), followed by visualization using an enhanced chemiluminescence system (AlphaEase FluorChem System, Alpha Innotech Corp.). Bands were quantified using ImageJ (Ver. 1.46; NIH, Bethesda, MD).

[11] = test system: STAT1 phosphorylation (p-STAT1); type: cell-based, Human
in vitro = conditions: human
JAK1 = JAK1 (Homo sapiens, UniProt P23458); test: Cell-free kinase activity assay, JAK1; conditions: for JAK1 activity: cell-free kinase assay
[12] = test system: ERK phosphorylation (p-ERK); test: Western blot of phosphorylated ERK in influenza-infected U937 cells; type: cell-based, Human
Experimental: Figure 5 Raf/MEK/ERK and p38 signal pathways are involved in the regulation of cytokines in U937 cells. (A–C) Determination of inhibition rates on IL-8, IP-10, and MCP-1 by each compound in the MAPK group and the distribution of targets between subgroups. U937 cells were infected with influenza A/PuertoRico/8/1934 virus (MOI = 0.1) in the presence of 10 μM of each inhibitor and then incubated at 37°C for 48 h. The distribution of the targets of all the inhibitors in the MAPK group was then analyzed and categorized into subgroups. […] The supernatants were harvested 48 h post-infection, and the levels of IL-8, MCP-1, and IP-10 were measured by AlphaLISA. (E) The cells were treated as in (C) except being lysed 24 h post-infection, and the levels of phosphorylated STAT1, p38, ERK (p-STAT1, p-p38, p-ERK), total STAT1, p38, ERK, and viral protein HA were assessed by western blot. (F) A quantitative analysis of the relative levels of the phosphorylated STAT1, p38, ERK (p-STAT1, p-p38, p-ERK) in (E). The data are representative of at least three independent experiments. n.s. no significance; *p < 0.05; **p < 0.01; ***p < 0.001.
as §1
as §2, with “The membranes were then blotted with monoclonal antibodies against GAPDH (1:1000, ZSGB-BIO), p38, phosphor-p38, ERK, phospho-ERK, STAT1, phosphor-STAT1 (1:1000; Cell Signaling Technology), STAT3, and phosphor-STAT3 (1:1000; Cell Signaling Technology), respectively.” left out

[13] = Homo sapiens, U-937, secondary screen, Supplemental Table 1
[14] = Homo sapiens, U-937, read-out: EC50 IP-10
[15] = Homo sapiens, U-937, read-out: IC50 IP-10
[16] = Homo sapiens, U-937, read-out: EC50 IL-8
[17] = Homo sapiens, U-937, read-out: EC50 MCP-1
[18] = Homo sapiens, U-937, read-out: IC50 p-p38
[19] = CC50, secondary screen, Supplemental Table 1
[20] = U937 cells, Table 1 section H1N1

p38, sequence (Q16539 whole entry): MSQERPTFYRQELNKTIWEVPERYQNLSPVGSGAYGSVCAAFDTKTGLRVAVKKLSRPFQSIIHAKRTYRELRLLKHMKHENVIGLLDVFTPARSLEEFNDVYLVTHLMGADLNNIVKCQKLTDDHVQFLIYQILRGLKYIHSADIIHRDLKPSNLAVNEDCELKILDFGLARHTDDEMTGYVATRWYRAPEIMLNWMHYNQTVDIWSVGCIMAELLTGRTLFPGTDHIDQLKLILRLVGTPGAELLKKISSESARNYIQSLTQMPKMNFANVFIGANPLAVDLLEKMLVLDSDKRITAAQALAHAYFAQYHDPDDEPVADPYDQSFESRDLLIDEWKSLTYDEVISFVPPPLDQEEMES
T1 sequence (O60674 whole entry): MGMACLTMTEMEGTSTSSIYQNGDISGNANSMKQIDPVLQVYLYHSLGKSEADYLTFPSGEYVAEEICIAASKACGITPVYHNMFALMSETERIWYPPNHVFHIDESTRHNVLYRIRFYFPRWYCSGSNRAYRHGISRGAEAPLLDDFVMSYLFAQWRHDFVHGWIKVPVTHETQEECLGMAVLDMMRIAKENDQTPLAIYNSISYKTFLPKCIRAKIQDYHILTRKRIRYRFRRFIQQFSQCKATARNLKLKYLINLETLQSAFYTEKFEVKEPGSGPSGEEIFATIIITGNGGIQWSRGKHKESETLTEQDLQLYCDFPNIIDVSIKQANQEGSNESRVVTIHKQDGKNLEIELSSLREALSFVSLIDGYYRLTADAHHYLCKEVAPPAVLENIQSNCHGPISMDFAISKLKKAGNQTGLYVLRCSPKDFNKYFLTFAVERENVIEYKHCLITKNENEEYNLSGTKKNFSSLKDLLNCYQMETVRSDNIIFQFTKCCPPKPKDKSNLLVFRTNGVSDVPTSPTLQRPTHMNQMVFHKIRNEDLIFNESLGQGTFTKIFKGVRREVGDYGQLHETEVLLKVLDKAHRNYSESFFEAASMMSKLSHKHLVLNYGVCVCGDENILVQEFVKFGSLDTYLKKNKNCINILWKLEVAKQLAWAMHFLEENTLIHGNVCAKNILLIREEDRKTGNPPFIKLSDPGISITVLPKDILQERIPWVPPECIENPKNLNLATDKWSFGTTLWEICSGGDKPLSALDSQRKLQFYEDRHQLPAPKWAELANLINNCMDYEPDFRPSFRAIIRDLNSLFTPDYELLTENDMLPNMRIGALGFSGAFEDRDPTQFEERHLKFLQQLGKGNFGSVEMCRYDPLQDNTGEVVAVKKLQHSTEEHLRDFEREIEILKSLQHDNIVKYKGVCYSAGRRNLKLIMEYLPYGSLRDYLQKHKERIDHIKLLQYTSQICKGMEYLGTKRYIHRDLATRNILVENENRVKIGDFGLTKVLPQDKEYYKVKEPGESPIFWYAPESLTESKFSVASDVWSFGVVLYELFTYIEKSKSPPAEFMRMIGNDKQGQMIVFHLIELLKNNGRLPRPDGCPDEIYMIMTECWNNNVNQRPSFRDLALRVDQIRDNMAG
JAK1, sequence (P23458 whole entry): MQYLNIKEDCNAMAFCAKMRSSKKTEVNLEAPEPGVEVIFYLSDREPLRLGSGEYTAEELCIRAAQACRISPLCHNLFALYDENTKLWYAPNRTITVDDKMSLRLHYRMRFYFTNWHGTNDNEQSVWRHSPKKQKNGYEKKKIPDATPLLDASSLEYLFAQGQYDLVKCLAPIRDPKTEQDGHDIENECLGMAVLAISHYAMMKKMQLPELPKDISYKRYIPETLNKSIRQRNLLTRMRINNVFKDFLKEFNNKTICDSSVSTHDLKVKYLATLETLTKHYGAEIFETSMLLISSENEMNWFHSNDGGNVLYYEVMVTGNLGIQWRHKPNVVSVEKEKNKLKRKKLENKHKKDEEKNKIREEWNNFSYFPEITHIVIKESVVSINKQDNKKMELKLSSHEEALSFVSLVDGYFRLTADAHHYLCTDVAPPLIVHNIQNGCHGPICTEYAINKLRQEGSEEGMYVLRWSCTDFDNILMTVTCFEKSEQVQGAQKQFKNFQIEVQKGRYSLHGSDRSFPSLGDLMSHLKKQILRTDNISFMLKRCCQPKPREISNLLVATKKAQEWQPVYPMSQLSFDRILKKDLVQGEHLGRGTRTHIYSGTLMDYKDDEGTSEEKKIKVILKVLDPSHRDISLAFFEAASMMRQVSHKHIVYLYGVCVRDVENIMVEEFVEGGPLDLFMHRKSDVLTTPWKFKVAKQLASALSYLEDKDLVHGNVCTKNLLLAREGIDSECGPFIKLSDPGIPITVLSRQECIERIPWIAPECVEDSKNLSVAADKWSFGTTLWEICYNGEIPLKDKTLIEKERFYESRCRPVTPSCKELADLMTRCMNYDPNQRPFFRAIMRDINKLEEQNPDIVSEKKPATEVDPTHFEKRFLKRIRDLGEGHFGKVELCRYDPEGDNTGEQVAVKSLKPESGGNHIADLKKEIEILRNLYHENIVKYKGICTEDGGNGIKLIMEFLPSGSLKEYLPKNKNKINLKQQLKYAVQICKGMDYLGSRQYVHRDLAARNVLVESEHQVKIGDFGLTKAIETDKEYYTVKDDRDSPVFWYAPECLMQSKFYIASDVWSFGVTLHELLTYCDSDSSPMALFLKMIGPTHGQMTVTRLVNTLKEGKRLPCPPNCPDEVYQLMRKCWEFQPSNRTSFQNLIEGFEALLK

Which results are given for `Cc1cc(Nc2nc(N[C@@H](C)c3ncc(F)cn3)ncc2Cl)n[nH]1` [AZD1480]?
IC50 ([1]; Homo sapiens, U-937): 7500 nM; EC50 [1, 13]: 110 nM; EC50 ([1]; Homo sapiens, U-937): 7690 nM; EC50 [2, 14]: 100 nM; IC50 [2, 15]: 7110 nM; EC50 ([2]; Homo sapiens, U-937; read-out: EC50 IP-10): 7690 nM; EC50 ([3]; Homo sapiens, U-937, read-out: EC50 MCP-1, U937 cells infected with H1N1): 6250 nM; EC50 ([3]; Homo sapiens, U-937, read-out: EC50 MCP-1, secondary screen, Supplemental Table 1): 30 nM; IC50 ([3]; Homo sapiens, U-937, read-out: IC50 MCP-1): 6300 nM; EC50 ([4]; Homo sapiens, U-937): 7140 nM; EC50 ([5]; Homo sapiens, U-937): 17 nM; EC50 ([6]; Homo sapiens, U-937): 478 nM; EC50 [7, 16]: 215 nM; EC50 [8, 14]: 57 nM; EC50 [9, 17]: 714 nM; JAK2 activity (JAK2; cell-free kinase assay): inhibited; p38 kinase activity in vitro (p38): failed to inhibit; IC50 (p38): > 100000 nM; phosphorylation of p38 [10]: suppress; IC50 [10, 18]: 5300 nM; STAT1 phosphorylation levels [11]: significantly reduced; maximum non-toxic concentration (U937 cells; human): 50 µM; CC50 at 48 h (in vitro): 100000 nM; CC50 (in vitro; [19]): 13500 nM; IC50 (JAK1): 430 nM; JAK1 activity (JAK1): inhibited

For `CCS(=O)(=O)N1CC(CC#N)(n2cc(-c3ncnc4[nH]ccc34)cn2)C1` [Baricitinib], which JAK2 activity (JAK2) is on record?
Its JAK2 activity is “inhibited”.

And the “p38 kinase activity in vitro” value (p38)?
The value was “failed to inhibit”.

What about the IC50 (p38) of the same molecule?
Its IC50 is > 1000 nM.

And the “phosphorylation of p38” value [10]?
The value was “suppress”.

What about the CC50 at 48 h (in vitro) of the same molecule?
Its CC50 at 48 h is 5380 nM.

What about the CC50 (in vitro; CC50) of the same molecule?
Its CC50 is > 100000 nM.

Which IC50 ([1]; Homo sapiens, U-937) does the source give for `Cc1nc(Nc2ncc(C(=O)Nc3c(C)cccc3Cl)s2)cc(N2CCN(CCO)CC2)n1` [Dasatinib] here?
The IC50 was 1900 nM.

And the EC50 [1, 13]?
The EC50 was 2060 nM.

What about the EC50 ([1]; Homo sapiens, U-937) of the same molecule?
Its EC50 is 1890 nM.

What about the EC50 ([2]; Homo sapiens, U-937, U937 cells infected with H1N1; read-out: EC50 IP-10) of the same molecule?
The EC50 was 1160 nM.

And the EC50 ([2]; Homo sapiens, U-937, secondary screen, Supplemental Table 1; read-out: EC50 IP-10)?
Its EC50 is 1300 nM.

What about the EC50 ([3]; Homo sapiens, U-937, U937 cells infected with H1N1, read-out: EC50 MCP-1) of the same molecule?
Its EC50 is 190 nM.

What about the EC50 ([3]; Homo sapiens, U-937, secondary screen, Supplemental Table 1, read-out: EC50 MCP-1) of the same molecule?
Its EC50 is 140 nM.

What about the IC50 ([3]; Homo sapiens, U-937, production of MCP-1 in U937 cells infected with influenza virus, Table 4, read-out: IC50 MCP-1) of the same molecule?
Its IC50 is 190 nM.

What about the EC50 ([4]; Homo sapiens, U-937) of the same molecule?
Its EC50 is 730 nM.

And the EC50 ([5]; Homo sapiens, U-937)?
Its EC50 is 17 nM.

What about the EC50 ([6]; Homo sapiens, U-937) of the same molecule?
Its EC50 is 18 nM.

And the EC50 [7, 16]?
The EC50 was 135 nM.

And the EC50 [8, 14]?
The EC50 was 14 nM.

What about the EC50 [9, 17] of the same molecule?
Its EC50 is 44 nM.

What about the IC50 [10, 18] of the same molecule?
The IC50 was 1000 nM.

What about the STAT1 phosphorylation levels [11] of the same molecule?
Its STAT1 phosphorylation levels is “significantly reduced”.

And the CC50 (U937 cells; [20])?
Its CC50 is > 100000 nM.

And the maximum non-toxic concentration (U937 cells; human)?
The maximum non-toxic concentration was 1 µM.

What about the CC50 (in vitro) of the same molecule?
Its CC50 is > 100000 nM.

And the CC50 at 48 h (in vitro)?
Its CC50 at 48 h is > 100000 nM.

For `CC[C@@](C)(Nc1ccnc(-c2c[nH]c3ncccc23)n1)C(=O)NCC(F)(F)F` [Decernotinib], which EC50 [1, 13] is on record?
Its EC50 is 20 nM.

What about the EC50 [2, 14] of the same molecule?
The EC50 was 100 nM.

What about the IC50 [2, 15] of the same molecule?
Its IC50 is 100 nM.

And the EC50 [3, 17]?
The EC50 was 50 nM.

And the IC50 (JAK2)?
Its IC50 is 90 nM.

What about the JAK2 activity (JAK2) of the same molecule?
Its JAK2 activity is “inhibited”.

What about the CC50 (in vitro; [19]) of the same molecule?
Its CC50 is 50000 nM.

What about the IC50 (JAK1) of the same molecule?
Its IC50 is 13 nM.

And the JAK1 activity (JAK1)?
The JAK1 activity was “inhibited”.

With `Cc1ccc(Nc2ncc3c(n2)N(C)C(=O)N(c2cc(NC(=O)c4cccc(C(F)(F)F)c4)ccc2C)C3)cn1` [GNF-7] as the molecule, how does the IC50 [1] read?
The IC50 was < 20 nM.

And the EC50 [1]?
Its EC50 is 19 nM.

What about the EC50 ([1]; secondary screen, Supplemental Table 1) of the same molecule?
Its EC50 is < 5 nM.

What about the EC50 ([2]; U937 cells infected with H1N1; read-out: EC50 IP-10) of the same molecule?
Its EC50 is 71 nM.

What about the EC50 ([2]; secondary screen, Supplemental Table 1; read-out: EC50 IP-10) of the same molecule?
The EC50 was 20 nM.

And the EC50 ([3]; U937 cells infected with H1N1, read-out: EC50 MCP-1)?
The EC50 was 18 nM.

And the IC50 ([3]; production of MCP-1 in U937 cells infected with influenza virus, Table 4, read-out: IC50 MCP-1)?
Its IC50 is < 20 nM.

And the EC50 ([3]; secondary screen, Supplemental Table 1, read-out: EC50 MCP-1)?
The EC50 was 10 nM.

What about the EC50 [4] of the same molecule?
Its EC50 is 27 nM.

And the EC50 [5]?
Its EC50 is 1 nM.

And the EC50 [6]?
The EC50 was 14 nM.

What about the EC50 ([7]; read-out: EC50 IL-8) of the same molecule?
Its EC50 is 14 nM.

And the EC50 ([8]; read-out: EC50 IP-10)?
The EC50 was 5 nM.

What about the EC50 ([9]; read-out: EC50 MCP-1) of the same molecule?
Its EC50 is 109 nM.

What about the IC50 ([10]; phosphorylation of p38, western blot, Table 4, read-out: IC50 p-p38) of the same molecule?
The IC50 was 10 nM.

And the STAT1 phosphorylation levels [11]?
Its STAT1 phosphorylation levels is “significantly reduced”.

What about the “phosphorylation level of ERK” value [12] of the same molecule?
The value was “promoted”.

What about the CC50 (U937 cells) of the same molecule?
The CC50 was 13600 nM.

And the maximum non-toxic concentration (U937 cells)?
Its maximum non-toxic concentration is 1 µM.

What about the CC50 (U937 cells; [20]) of the same molecule?
The CC50 was 13600 nM.

What about the CC50 (U937 cells; U937 cells, Table 1 section H3N2) of the same molecule?
The CC50 was 13600 nM.
